Data published in patent publication US7932242B2, “Substituted phenoxy-and phenylthio-derivatives for treating proliferative disorders” (Temple University - Of The Commonwealth System of Higher …, priority 2004, dated 2011).
Where a name gives a salt, the structure may show the parent alone. Read-outs that look alike come from different tables or passages of the source.

Legend:
Format in all cases: cell-based
DU145 = assay: Tumor cell growth inhibition, Trypan blue exclusion, DU145; conditions: Homo sapiens, cell viability after 96 hours vs vehicle (DMSO)
Description: (§1) The effect of Compounds of Formula I on tumor cells of prostate, colon, lung, pancreatic, brain, renal, gastrointestinal, epidermal, lymphocytic, ovary and breast origin was examined by utilizing a variety of cancer cell lines (listed in Table 6). Cells were plated at density levels of 1.0×10^5 cells per well in six-well plates. Cell cultures were maintained at 37° C. in a humidified atmosphere of 5% CO2.
(§2) In addition, DU-145 cells were treated with three additional compounds of the invention: (E)-4-(3-(5-((2,4,6-trimethoxystyrylsulfonyl)methyl)-2-methoxyphenoxy)propyl)morpholine; (E)-5-((2,4,6-trimethoxystyrylsulfonyl)methyl)-2-methoxyphenyl 2-(dimethylamino)acetate; and (E)-5-((2,4,6-trimethoxystyrylsulfonyl)methyl)-2-methoxyphenyl 4-methylbenzenesulfonate, the structures of which are shown in Table 7.
(§3) Values are reported as the GI50, i.e., the concentration (μM) required for 50% growth inhibition as compared to vehicle (DMSO) treated cells. The notations “ER+” and “ER−” designate breast cancer lines that are responsive and non-responsive to estrogen, respectively. The notations “AR+” and “AR−” designate prostate cancer lines that are responsive and non-responsive to androgens, respectively. […] For cell lines designated by “*”, the dose response curve for the compound (E)-5-((2,4,6-trimethoxystyrylsulfonyl)methyl)-2-methoxyphenol (Example 1) is set forth in FIG. 1.

MCF-7 = assay: Tumor cell growth inhibition, Trypan blue exclusion, MCF-7; conditions: Homo sapiens, MCF7; MCF-7, Breast (Er+); cell viability after 96 hours vs vehicle (DMSO)
Description: as §1
(§4) Cells of 36 different cell lines were treated with (E)-5-((2,4,6-trimethoxystyrylsulfonyl)methyl)-2-methoxyphenol (Example 1) or (E)-5-((2,4,6-trimethoxystyrylsulfonyl)methyl)-2-methoxy-phenyl dihydrogen phosphate disodium salt (Example 5) at doses ranging from 2 nM to 10 nM concentration, and cell viability was determined after 96 hours by the Trypan blue exclusion method. In addition, DU-145 cells were treated with three additional compounds of the invention: (E)-4-(3-(5-((2,4,6-trimethoxystyrylsulfonyl)methyl)-2-methoxyphenoxy)propyl)morpholine; (E)-5-((2,4,6-trimethoxystyrylsulfonyl)methyl)-2-methoxyphenyl 2-(dimethylamino)acetate; and (E)-5-((2,4,6-trimethoxystyrylsulfonyl)methyl)-2-methoxyphenyl 4-methylbenzenesulfonate, the structures of which are shown in Table 7.
(§5) Values are reported as the GI50, i.e., the concentration (μM) required for 50% growth inhibition as compared to vehicle (DMSO) treated cells. […]

BT20 = assay: Tumor cell growth inhibition, Trypan blue exclusion, BT20; conditions: Homo sapiens, BT-20; BT20, Breast (Er−); cell viability after 96 hours vs vehicle (DMSO)
Description: as §1, §2, §3

HCT-15 = assay: Tumor cell growth inhibition, Trypan blue exclusion, HCT-15; conditions: Homo sapiens; HCT-15, Colo-Rectal; cell viability after 96 hours vs vehicle (DMSO)
Description: as §1, §4, §5

Namalwa = assay: Tumor cell growth inhibition, Trypan blue exclusion, Namalwa; conditions: Burkitt's Lymphoma (B-Cell), cell viability after 96 hours vs vehicle (DMSO)
Description: as §1, §4, §5

AGS = assay: Tumor cell growth inhibition, Trypan blue exclusion, AGS; conditions: Homo sapiens, Gastric, cell viability after 96 hours vs vehicle (DMSO)
Description: as §1, §4, §5

DLD-1 = assay: Tumor cell growth inhibition, Trypan blue exclusion, DLD-1; conditions: Homo sapiens; DLD-1, Colo-Rectal; cell viability after 96 hours vs vehicle (DMSO)
Description: as §1, §4, §5

CEM [1] = assay: Tumor cell growth inhibition, Trypan blue exclusion, CEM; conditions: Homo sapiens, CCRF-CEM, Leukemic, cell viability after 96 hours vs vehicle (DMSO)
Description: as §1, §4, §5

RF48 = assay: Tumor cell growth inhibition, Trypan blue exclusion, RF48; conditions: RF48, Gastric; cell viability after 96 hours vs vehicle (DMSO)
Description: as §1, §4, §5

U87 = assay: Tumor cell growth inhibition, Trypan blue exclusion, U87; conditions: Homo sapiens, U-87 MG; U87, Glioblastoma; cell viability after 96 hours vs vehicle (DMSO)
Description: as §1, §4, §5

MOLT-4 = assay: Tumor cell growth inhibition, Trypan blue exclusion, MOLT-4; conditions: Homo sapiens; MOLT-4, T-Lymphoblastic: All; cell viability after 96 hours vs vehicle (DMSO)
Description: as §1, §4, §5

K562 = assay: Tumor cell growth inhibition, Trypan blue exclusion, K562; conditions: Homo sapiens; K562, Cml; cell viability after 96 hours vs vehicle (DMSO)
Description: as §1, §4, §5

T47D = assay: Tumor cell growth inhibition, Trypan blue exclusion, T47D; conditions: Homo sapiens, Breast (Er+), cell viability after 96 hours vs vehicle (DMSO)
Description: as §1, §4, §5

SW480 = assay: Tumor cell growth inhibition, Trypan blue exclusion, SW480; conditions: Homo sapiens; SW480, Colo-Rectal; cell viability after 96 hours vs vehicle (DMSO)
Description: as §1, §4, §5

CEM [2] = assay: Tumor cell growth inhibition, Trypan blue exclusion, Cem (second listing); conditions: Homo sapiens, Leukemic (second listing, parent of Cem/C2), cell viability after 96 hours vs vehicle (DMSO)
Description: as §1, §4, §5

H157 = assay: Tumor cell growth inhibition, Trypan blue exclusion, H157; conditions: Homo sapiens, NCI-H157; H157, Nsclc; cell viability after 96 hours vs vehicle (DMSO)
Description: as §1, §4, §5

Raji = assay: Tumor cell growth inhibition, Trypan blue exclusion, Raji; conditions: Homo sapiens, Burkitt's Lymphoma (B-Cell), cell viability after 96 hours vs vehicle (DMSO)
Description: as §1, §4, §5

A549 = assay: Tumor cell growth inhibition, Trypan blue exclusion, A549; conditions: Homo sapiens; A549, Nsclc; cell viability after 96 hours vs vehicle (DMSO)
Description: as §1, §4, §5

MIA-PACA2 = assay: Tumor cell growth inhibition, Trypan blue exclusion, MIA-PACA2; conditions: Homo sapiens, MIA PaCa-2; MIA-PACA2, Pancreatic; cell viability after 96 hours vs vehicle (DMSO)
Description: as §1, §4, §5

OV-CAR-3 = assay: Tumor cell growth inhibition, Trypan blue exclusion, OV-CAR-3; conditions: Homo sapiens, OVCAR-3; OV-CAR-3, Ovarian; cell viability after 96 hours vs vehicle (DMSO)
Description: as §1, §4, §5

PC-3 = assay: Tumor cell growth inhibition, Trypan blue exclusion, PC-3; conditions: Homo sapiens; PC-3, Prostate; cell viability after 96 hours vs vehicle (DMSO)
Description: as §1, §4, §5

LNCAP = assay: Tumor cell growth inhibition, Trypan blue exclusion, LNCAP; conditions: Homo sapiens, Prostate (Ar+), cell viability after 96 hours vs vehicle (DMSO)
Description: as §1, §4, §5

Daudi = assay: Tumor cell growth inhibition, Trypan blue exclusion, Daudi; conditions: Homo sapiens, Burkitt's Lymphoma (B-Cell), cell viability after 96 hours vs vehicle (DMSO)
Description: as §1, §4, §5

Mes-Sa = assay: Tumor cell growth inhibition, Trypan blue exclusion, Mes-Sa; conditions: Homo sapiens, Sarcoma, cell viability after 96 hours vs vehicle (DMSO)
Description: as §1, §4, §5

Mes-Sa/Dx5 = assay: Tumor cell growth inhibition, Trypan blue exclusion, Mes-Sa/Dx5; conditions: Homo sapiens; Mes-Sa/Dx5, Resistant Sarcoma; cell viability after 96 hours vs vehicle (DMSO)
Description: as §1, §4, §5

Cem/C2 = assay: Tumor cell growth inhibition, Trypan blue exclusion, Cem/C2; conditions: Homo sapiens; Cem/C2, Resistant Leukemic; cell viability after 96 hours vs vehicle (DMSO)
Description: as §1, §4, §5

CAKI-2 = assay: Tumor cell growth inhibition, Trypan blue exclusion, CAKI-2; conditions: Homo sapiens; CAKI-2, Renal; cell viability after 96 hours vs vehicle (DMSO)
Description: as §1, §4, §5

H187 = assay: Tumor cell growth inhibition, Trypan blue exclusion, H187; conditions: Homo sapiens, NCI-H187; H187, Sclc; cell viability after 96 hours vs vehicle (DMSO)
Description: as §1, §4, §5

HCT-116 = assay: Tumor cell growth inhibition, Trypan blue exclusion, HCT-116; conditions: Homo sapiens; HCT-116, Colo-Rectal; cell viability after 96 hours vs vehicle (DMSO)
Description: as §1, §4, §5

RF1 = assay: Tumor cell growth inhibition, Trypan blue exclusion, RF1; conditions: RF1, Gastric; cell viability after 96 hours vs vehicle (DMSO)
Description: as §1, §4, §5

SK-MEL-28 = assay: Tumor cell growth inhibition, Trypan blue exclusion, SK-MEL-28; conditions: Homo sapiens; SK-MEL-28, Melanoma; cell viability after 96 hours vs vehicle (DMSO)
Description: as §1, §4, §5

N417 = assay: Tumor cell growth inhibition, Trypan blue exclusion, N417; conditions: N417, Sclc; cell viability after 96 hours vs vehicle (DMSO)
Description: as §1, §4, §5

2008/17/4 = assay: Tumor cell growth inhibition, Trypan blue exclusion, 2008/17/4; conditions: 2008/17/4, Resistant Ovarian; cell viability after 96 hours vs vehicle (DMSO)
Description: as §1, §4, §5

Sk-OV-3 = assay: Tumor cell growth inhibition, Trypan blue exclusion, Sk-OV-3; conditions: Homo sapiens; Sk-OV-3, Ovarian; cell viability after 96 hours vs vehicle (DMSO)
Description: as §1, §4, §5

COLO-320 = assay: Tumor cell growth inhibition, Trypan blue exclusion, COLO-320; conditions: Homo sapiens; COLO-320, Colo-Rectal; cell viability after 96 hours vs vehicle (DMSO)
Description: as §1, §4, §5

2008 = assay: Tumor cell growth inhibition, Trypan blue exclusion, 2008; conditions: 2008, Ovarian; cell viability after 96 hours vs vehicle (DMSO)
Description: as §1, §4, §5

[3] = DU-145 cells, Table 7, read-out: DU-145 GI50
[4] = DU-145, DU145, Prostate (Ar−), read-out: GI50

COc1cc(OC)c(/C=C/S(=O)(=O)Cc2ccc(OC)c(OCCCN3CCOCC3)c2)c(OC)c1 [(E)-4-(3-(5-((2,4,6-trimethoxystyrylsulfonyl)methyl)-2-methoxyphenoxy)propyl)morpholine]
GI50 (DU145; [3]): > 10000 nM

COc1cc(OC)c(/C=C/S(=O)(=O)Cc2ccc(OC)c(OC(=O)CN(C)C)c2)c(OC)c1 [(E)-5-((2,4,6-trimethoxystyrylsulfonyl)methyl)-2-methoxyphenyl 2-(dimethylamino)acetate]
GI50 (DU145; [3]): 4 to 10 nM

COc1cc(OC)c(/C=C/S(=O)(=O)Cc2ccc(OC)c(OS(=O)(=O)c3ccc(C)cc3)c2)c(OC)c1 [(E)-5-((2,4,6-trimethoxystyrylsulfonyl)methyl)-2-methoxyphenyl 4-methylbenzenesulfonate]
GI50 (DU145; [3]): > 1000 nM

COc1cc(OC)c(/C=C/S(=O)(=O)Cc2ccc(OC)c(O)c2)c(OC)c1 [Example 1, (E)-5-((2,4,6-trimethoxystyrylsulfonyl)methyl)-2-methoxyphenol]
GI50 (MCF-7): 10 nM
GI50 (BT20): 80 nM
GI50 (HCT-15): 7 nM
GI50 (Namalwa): 3 nM
GI50 (AGS): 5 nM
GI50 (DLD-1): 7 nM
GI50 (CEM [1]): 4 nM
GI50 (RF48): 1 nM
GI50 (U87): 7 nM
GI50 (MOLT-4): 3 nM
GI50 (K562): 4 nM
GI50 (T47D): 10 nM
GI50 (SW480): 5 nM
GI50 (CEM [2]): 4 nM
GI50 (H157): 7 nM
GI50 (Raji): 1 nM
GI50 (A549): 10 nM
GI50 (MIA-PACA2): 3 nM
GI50 (OV-CAR-3): 30 nM
GI50 (PC-3): 5 nM
GI50 (LNCAP): 10 nM
GI50 (DU145; [4]): 5 nM
GI50 (Daudi): 3 nM
GI50 (Mes-Sa): 5 nM
GI50 (Mes-Sa/Dx5): 5 nM
GI50 (Cem/C2): 3 nM
GI50 (CAKI-2): 6 nM
GI50 (H187): 3 nM
GI50 (HCT-116): 6 nM
GI50 (RF1): 3 nM
GI50 (SK-MEL-28): 7 nM
GI50 (N417): 3 nM
GI50 (2008/17/4): 6 nM
GI50 (Sk-OV-3): 4 nM
GI50 (COLO-320): 3 nM
GI50 2008: 5 nM

COc1cc(OC)c(/C=C/S(=O)(=O)Cc2ccc(OC)c(OP(=O)(O)O)c2)c(OC)c1 [Example 5, (E)-5-((2,4,6-trimethoxystyrylsulfonyl)methyl)-2-methoxyphenyl dihydrogen phosphate, disodium salt]
GI50 (BT20): 8 nM
GI50 (HCT-15): 12 nM
GI50 (AGS): 9 nM
GI50 (DLD-1): 12 nM
GI50 (U87): 9 nM
GI50 (H157): 12 nM
GI50 (A549): 20 nM
GI50 (MIA-PACA2): 4 nM
GI50 (DU145; [4]): 5 nM
GI50 (SK-MEL-28): 12 nM
GI50 (N417): 4 nM
